Legend:
MBP-dC10α [1] = experiment: Fluorescence enhancement of fluorogen after labelling of test protein MBP-dC10α; type: biochemical; conditions: for fluorescence enhancement after reaction with MBP-dC10α: 25 μM fluorogen + 25 μM MBP-dC10α, overnight at 37° C., ratio of intensity at emission maximum; for background (latent) fluorescence of the unreacted fluorogen: 25 μM fluorogen without MBP-dC10α, 50 mM HEPES pH 7.4, 5% DMSO
Experimental: 3. Determination of Fluorescence Properties of Fluorogens, Fluorescence Changes after Labelling of Target Protein, Selectivity Over Other Thiols, and Fluorescence Enhancement Ratios.
(§1) Emission spectra and fluorescence intensity measurements were recorded at 37° C. with a Synergy H4 Hybrid Multi-Mode Microplate Reader with excitation and emission monochromators set at 9 nm bandpass. Concentrations of 2.5, 5, 12.5, 20, and 25 μM of MBP-dC10α were reacted with 25 μM YC23. The mixture of 25 μM solution of YC23 and 2.5, 5, 12.5 20, or 25 μM MBP-dC10α in 50 mM HEPES buffer (pH 7.4) with 5% DMSO was incubated at 37° C. in the dark for overnight after which the fluorescence emission spectrum was recorded (λex=480 nm). The emission spectra of YC23 in the same solution without MBP-dC10α were also recorded. The ratio of fluorescence intensity at maximum emission gave the fluorescence enhancement ratio. Selectivity tests were done with same protocol but with different concentrations of thiols. The mixture of 25 μM solution of YC28 or YC29 and 25 μM MBP-dC10α in 50 mM HEPES buffer (pH 7.4) with 5% DMSO was incubated at 37° C. in the dark for overnight after which the fluorescence emission spectrum was recorded. The emission spectra of YC28 or YC29 in the same solution without MBP-dC10α were also recorded. The ratio of fluorescence intensity at maximum emission gave the fluorescence enhancement ratio. λex for YC28 is 540 nm and λex for YC29 is 580 nm. Excitation and emission spectra were obtained for 25 μM of MBP-dC10α labelled with one equivalent of YC23 (FIG. 10), YC28 (FIG. 11a) or YC29 (FIG. 11b).

MBP-dC10α [2] = experiment: Time-dependent fluorescence increase for kinetic studies with MBP-dC10α; type: biochemical
Experimental: 4. Time-Dependent Fluorescence Increase for Kinetic Studies.
Protein labelling kinetics were studied by following the time-dependent fluorescence increase at 37° C. using a Synergy H4 Hybrid Multi-Mode Microplate Reader with excitation and emission monochromators set at a 9-nm bandpass. The reaction was prepared in 50 mM HEPES buffer (pH 7.4) with 5% DMSO. Solutions of MBP-dC10α were prepared in a 96-well plate and labelling reagent YC23, YC28 or YC29 in DMSO was added immediately before recording. The final concentrations of YC23, YC28, YC29 and of MBP-dC10α were all 25 μM in 50 mM HEPES buffer (pH 7.4) with 5% DMSO. Samples were excited at 495 nm (YC23), 540 nm (YC28) or 580 nm (YC29) and fluorescence intensity was followed at 525 nm (YC23), 590 nm (YC28) or 630 nm (YC29) as a function of time.

[3] = system: histone-H2B-dC10α in HEK293T cells; experiment: Cellular labelling with confocal fluorescence microscopy; type: cell-based, Human; conditions: for fluorescence in cells transfected with histone-H2B-dC10α / fluorescence in negative-control cells (pcDNA / mock DNA): HEK293T, 10 μM fluorogen; for fluorescence in cells transfected with histone-H2B-dC10α: 30 min (YC23) or 45 min (YC29); for fluorescence in negative-control cells (pcDNA / mock DNA): same conditions
Experimental: HEK 293T cells were plated into 60-mm dishes and grown in MEM supplemented with 10% FBS, 100 units/mL of penicillin and 100 μg/mL of streptomycin for 16 h before transfection. Cells were transiently transfected with histone H2B-dC10α or pcDNA3.1 (mock) using lipofectamine 2000 following the manufacturer's instructions. […] Cells were observed and imaged on a Nikon confocal microscope with a 25× objective. Images were taken and analyzed with NIS-Elements software.

[4] = Time-dependent fluorescence increase with excess glutathione; type: biochemical
MBP-dC10α [5] = experiment: Excitation and emission spectra of fluorogen-labelled MBP-dC10α; type: physicochemical; conditions: 25 μM MBP-dC10α labelled with one equivalent of fluorogen
Experimental: as §1

[6] = Selectivity over other thiols, overnight incubation; type: biochemical; conditions: 25 μM YC23 overnight; 250 μM Cys and Hcy, 1 mM GSH vs 25 μM MBP-dC10α
Experimental: The selectivity of fluorogen YC23 was tested by incubating it overnight in the presence of MBP-dC10α or other intracellular thiols.
as §1, with “Excitation and emission spectra were obtained for 25 μM of MBP-dC10α labelled with one equivalent of YC23 (FIG. 10), YC28 (FIG. 11a) or YC29 (FIG. 11b).” left out

HEK293T cells = experiment: MTT assay cytotoxicity; type: cell-based, Human; conditions: up to 100 μM, 20 hours
Experimental: 3-(4,5-Dimethylthiazol-2-yl)-2,5-diphenyl tetrazolium bromide (MTT) is a yellow tetrazolium salt and can be reduced to formazan crystals, which are insoluble in aqueous solutions, by active mitochondria in living cells. The resulting intracellular purple formazan can be dissolved in Triton X100, and therefore quantified by measuring absorption of the solution.
Cells were seeded in a 96-well plate and incubated with 100 μL of culture medium with different amounts of the fluorogen YCx for 20 h. No fluorogen was added to the positive control and no cells were plated in the negative control. Portions of 25 μL of MTT solution (5 mg in 1 mL of Hanks' balanced salt solution) were added to the wells and the cells were further incubated at 37° C. for 4 h. Solubilization solutions (100 μL) were then added and incubated in 96-well plates at room temperature in the dark overnight. The absorption of each well was measured using a plate reader at a wavelength of 570 nm with 690 nm as a reference. Cell viability was calculated according to the following equation: Cell viability=(Awith fluorogen−Anegative control)/(Apositive control−Anegative control)×100%

MBP-dC10α [7] = experiment: Labelling of MBP-dC10α, purified and in bacterial lysate, analysed by SDS-PAGE after heat denaturation; type: biochemical, Escherichia coli
Experimental: 10% SDS-PAGE gels developed by (A) fluorescence (λex=491 nm, λem=508 nm) and (B) Coomassie staining are shown. Lane 1: molecular weight markers. Lanes 2-3: Purified MBP-[…]α, concentrated to 50 μM and (lane 3) labelled with 50 μM YC23, prior to 10-fold dilution and loading. Lanes 4-6: Soluble lysate of bacteria expressing MBP-[…]α, treated with 10, 50, or 100 μM YC23 respectively and 0.5 mM TCEP overnight, prior to loading. The thiol addition reaction of a maleimide group typically results in the formation of robust covalent bonds, which should be stable under conditions in which the labelled protein may itself undergo denaturation. To test this hypothesis, we expressed MBP-[…]α in Escherichia coli and used YC23 to label the test protein in bacterial lysate as well as the purified test protein. These samples were then heated to 95° C. for 15 min, prior to analysis by SDS-PAGE. […] Furthermore, as shown in lanes 4-6, as little as 10 μM of YC23 was sufficient to label the test protein, in the complex biological mixture of cell lysate.

stability and selectivity of the fluorogen ([4]; in presence of GSH vs MBP-dC10α)	emission maximum of labelled MBP-dC10α (MBP-dC10α [5]) [nm]	excitation maximum of labelled MBP-dC10α (MBP-dC10α [5]) [nm]	SMILES	fluorescence enhancement after reaction with MBP-dC10α (MBP-dC10α [1])	background (latent) fluorescence of the unreacted fluorogen (MBP-dC10α [1])	reaction with MBP-dC10α test protein (time-dependent fluorescence) (MBP-dC10α [2]; 25 μM fluorogen, 25 μM MBP-dC10α)	localisation of fluorescence in transfected cells ([3]; HEK293T expressing histone H2B-dC10α, 10 μM, 45 min)	fluorescence in cells transfected with histone-H2B-dC10α [3]	fluorescence in negative-control cells (pcDNA / mock DNA) [3]	reaction with GSH (time-dependent fluorescence) ([4]; 5 mM GSH)	fluorescence after incubation with other thiols relative to MBP-dC10α [6] [%]	dependence of fluorescence increase on MBP-dC10α concentration (MBP-dC10α [1]; 25 μM YC23, 2.5-25 μM MBP-dC10α)	time required to approach maximum fluorescence (MBP-dC10α [2]; 25 μM fluorogen + 25 μM MBP-dC10α, 37° C.)	fluorescence increase after 15 min (MBP-dC10α [2]; 25 μM fluorogen + 25 μM MBP-dC10α, 37° C., 15 min) [fold]	effect on cell viability (HEK293T cells)	fluorescence of labelled purified test protein under denaturing conditions (MBP-dC10α [7]; 95° C. for 15 min, then SDS-PAGE)	concentration sufficient to label the test protein in cell lysate (MBP-dC10α [7]; soluble bacterial lysate, 0.5 mM TCEP, overnight) [µM]	kinetic selectivity for MBP-dC10α relative to GSH ([4]; 25 μM MBP vs 5 mM GSH)
excellent stability and selectivity	630	–	COC1=CC(=O)N(c2cc(Nc3ccc4n3[B-](F)(F)[N+]3=C(N(C)c5ccccc5)C=CC3=C4c3ccccc3)cc(N3C(=O)C=C(OC)C3=O)c2)C1=O [YC29, 7-((3,5-bis(3-methoxy-2,5-dioxo-2,5-dihydro-1H-pyrrol-1-yl)phenyl)amino)-5,5-difluoro-3-(methyl(phenyl)amino)-10-phenyl-5H-dipyrrolo[1,2-c:2′,1′-f][1,3,2]diazaborinin-4-ium-5-uide]	308 fold	efficiently quenched	reacted readily	localized in the nucleus	Intense red fluorescence	no red fluorescence was detected	did not show any detectable reaction	–	–	–	–	–	–	–	–
–	525	510	COC1=CC(=O)N(c2ccc(C3=C4C(C)=CC(C)=[N+]4[B-](F)(F)n4c(C)cc(C)c43)c(N3C(=O)C=C(OC)C3=O)c2)C1=O [YC23, 10-(2,4-Bis(3-methoxy-2,5-dioxo-2,5-dihydro-1H-pyrrol-1-yl)phenyl)-5,5-difluoro-1,3,7,9-tetramethyl-5H-dipyrrolo[1,2-c:2′,1′-f][1,3,2]diazaborinin-4-ium-5-uide]	ca. 800 fold	negligible background fluorescence	–	–	strongly green fluorescent	negligible fluorescence	–	< 10	concentration-dependent	more than 4 hours	10	negligible effect on cell viability	maintained its fluorescence	≤ 10	–
–	592	–	COC(=O)CSC1=[N+]2C(=C(c3ccccc3)c3ccc(Nc4cc(N5C(=O)C=C(OC)C5=O)cc(N5C(=O)C=C(OC)C5=O)c4)n3[B-]2(F)F)C=C1 [YC28, 7-((3,5-bis(3-methoxy-2,5-dioxo-2,5-dihydro-1H-pyrrol-1-yl)phenyl)amino)-5,5-difluoro-3-((2-methoxy-2-oxoethyl)thio)-10-phenyl-5H-dipyrrolo[1,2-c:2′,1′-f][1,3,2]diazaborinin-4-ium-5-uide]	579 fold	effectively quenched	–	–	–	–	–	–	–	–	–	–	–	–	acceptable but not excellent
